# Measurements from patent US12392778B2, “Method for proteome-wide discovery of covalent ligands and compositions thereof” (BridGene Biosciences, Inc., priority 2019, dated 2025).
# Tested on: SK-MEL-28 tumor cells
# Assay: Melanoma CDX model, SK-MEL-28 tumor growth
# Assay type: in vivo, BALB/c nude mice
# Conditions: 60 mg/kg subcutaneously twice a day for 5 days, then once a day for 9 days; not statistically significant
# Procedure: For this model, BALB/c nude mice were inoculated subcutaneously (sc) with SK-MEL-28 tumor cells (5×10^6 in 0.1 mL PBS and Matigel, 1:1). […] Throughout the treatment period, tumor sizes were recorded. […] Vehicle control consisted of 5% DMSO and 95% of a 20% 2-hydroxypropyl-beta-cyclodextrin solution. Eight female mice were included in each group. t-test was done using GraphPad Software.
compound,measurement,value
C#CCOc1cccc(Nc2ncnc3ccc(NC(=O)CCl)cc23)c1 [Compound 1],Tumor size compared to control,reduce tumor size compared to control starting at day 8
